Test results published in patent publication US11332477B2, “Nitrogen containing heterocycle substituted benzoxazine oxazolidinone compound and preparation method and use thereof” (INSTITUTE OF MATERIA MEDICA, CHINESE ACADEMY OF MEDICAL …, priority 2017, dated 2022).
≈ marks a conversion by molar mass, not a printed value. Read-outs that look alike come from different tables or passages of the source.

Experiments:
Vero cells = test: Cytotoxicity test (MTT); assay type: cell-based; conditions: Chlorocebus sabaeus
[1] = tested on: Mycobacterium tuberculosis H37Rv; test: Anti-tuberculosis activity test in vitro (Microplate Alamar Blue Assay, MABA); assay type: cell-based
[2] = tested on: mitochondrial protein synthesis; test: Activity of inhibiting mitochondrial protein synthesis; assay type: biochemical
Procedure: The experimental steps were carried out according to the literature (Antimicrobial Agents and Chemotherapy, 2006, 50 (6), 2042-2049).

[3] = Vero cells, MTT, 48 hours of incubation, highest concentration 64 μg/mL, read-out: IC50
[4] = M. tuberculosis H37Rv, MABA, 7H9 medium, method says MIC90 was calculated, read-out: MIC
[5] = mitochondrial protein synthesis inhibition, Table 3

**Q.** Which results are given for `COC(=O)NC[C@H]1OC(=O)N2c3cc(F)c(N4CCSCC4)cc3OC[C@H]12` [Compound 30, Methyl (((3R,3aR)-8-fluoro-1-oxo-7-thiomorpholino-3a,4-dihydro-1H,3H-benzo[b]oxazolo[3,4-d][l, 4]oxazin-3-yl)methyl)carbamate]?
**A.** IC50 (Vero cells; [3]): > 64 mg/L; melting point: 158 to 160 °C; MIC [1, 4]: 0.208 mg/L (≈ 0.523 µM)

**Q.** What does the source list for `O=C(NC[C@@H]1OC(=O)N2c3cc(F)c(N4CCSCC4)cc3OC[C@@H]12)C(F)F` [Compound 33, 2,2-Difluoro-N-(((3S,3aS)-8-fluoro-1-oxo-7-thiomorpholino-3a,4-dihydro-1H,3H-benzo [b]oxazolo[3,4-d][1,4]oxazin-3-yl)methyl)acetamide]?
**A.** IC50 (Vero cells; [3]): 61.6 mg/L (≈ 148 µM); melting point: 200 to 202 °C; MIC [1, 4]: 0.1 mg/L (≈ 0.24 µM)

**Q.** Which results are given for `CC(=O)NC[C@H]1OC(=O)N2c3cc(F)c(N4CCSCC4)cc3OC[C@H]12` [Compound 28, N-(((3R,3aR)-8-Fluoro-1-oxo-7-thiomorpholino-3a,4-dihydro-1H,3H-benzo[b]oxazolo[3,4-d][1,4]oxazin-3-yl)methyl)acetamide]?
**A.** IC50 (Vero cells; [3]): > 64 mg/L; IC50 [2, 5]: >100 mg/L; MIC [1, 4]: 0.232 mg/L (≈ 0.608 µM)

**Q.** With `O=C(NC[C@@H]1OC(=O)N2c3cc(F)c(N4[C@@H]5CC[C@H]4CSC5)cc3OC[C@@H]12)C1CC1` [Compound 16, N-(((3S,3aS)-7-((1R,5S)-3-thia-8-azabicyclo[3.2.1]octan-8-yl)-8-fluoro-1-oxo-3a,4-dihydro-1H,3H-benzo[b]oxazolo[3,4-d][1,4]oxazin-3-yl)methyl)cyclopropanecarboxamide] as the molecule, how does the IC50 (Vero cells; Vero, 48 h) read?
**A.** > 64 mg/L

**Q.** And the melting point?
**A.** 169 to 171 °C

**Q.** What about the MIC ([1]; H37RV) of the same molecule?
**A.** 0.976 mg/L (≈ 2.25 µM)

**Q.** Which IC50 (Vero cells; Vero, 48 h) does the source give for `O=C1O[C@@H](CNc2ccon2)[C@@H]2COc3cc(N4[C@@H]5CC[C@H]4CSC5)c(F)cc3N12` [Compound 19, (3S,3aS)-7-((1R,5S)-3-thia-8-azabicyclo[3.2.1]octan-8-yl)-8-fluoro-3-((isoxazol-3-ylamino)methyl)-3a,4-dihydro-1H,3H-benzo[b]oxazolo[3,4-d][1,4]oxazin-1-one] here?
**A.** > 64 mg/L

**Q.** What about the melting point of the same molecule?
**A.** 180 to 182 °C

**Q.** What does the source list for `CC(=O)NC[C@H]1CN(c2ccc(N3CCSCC3)c(F)c2)C(=O)O1` [Sutezolid, reference compound]?
**A.** IC50 [2, 5]: 7.98 mg/L; MIC [1, 4]: 0.078 mg/L (≈ 0.221 µM)

**Q.** What does the source list for `CC(C)C(=O)NC[C@@H]1OC(=O)N2c3cc(F)c(N4C5CCC4CSC5)cc3OC[C@@H]12` [Compound 15]?
**A.** IC50 (Vero cells; Vero, 48 h): > 64 mg/L; melting point: 164 to 165 °C

**Q.** With `O=C1O[C@@H](Cn2ccnn2)[C@@H]2COc3cc(N4CC5(COC5)C4)c(F)cc3N12` [Compound 27, (3S,3aS)-3-((1H-1,2,3-Triazol-1-yl)methyl)-8-fluoro-7-(2-oxa-6-azaspiro[3.3]heptan-6-y 1)-3a,4-dihydro-1H,3H-benzo[b]oxazolo[3,4-d][1,4]oxazin-1-one] as the molecule, how does the IC50 (Vero cells; [3]) read?
**A.** > 64 mg/L

**Q.** What about the melting point of the same molecule?
**A.** 219 to 221 °C

**Q.** What does the source list for `O=C(NC[C@@H]1OC(=O)N2c3cc(F)c(N4CC5(COC5)C4)cc3OC[C@@H]12)C1CCC1` [Compound 26, N-(((3S,3aS)-8-Fluoro-1-oxo-7-(2-oxa-6-azaspiro[3.3]heptan-6-yl)-3a,4-dihydro-1H,3H-benzo[b]oxazolo[3,4-d][1,4]oxazin-3-yl)methyl)cyclobutanecarboxamide]?
**A.** IC50 (Vero cells; [3]): > 64 mg/L; melting point: 118 to 120 °C

**Q.** With `CNC[C@@H]1OC(=O)N2c3cc(F)c(N4CCSCC4)cc3OC[C@@H]12` [Compound 2, (3S,3aS)-8-Fluoro-3-((methylamino)methyl)-7-thiomorpholino-3a,4-dihydro-1H,3H-benzo[b]oxazolo[3,4-d][1,4]oxazin-1-one] as the molecule, how does the IC50 (Vero cells; [3]) read?
**A.** 46.5 mg/L (≈ 132 µM)

**Q.** What about the melting point of the same molecule?
**A.** 155 to 156 °C

**Q.** Which IC50 (Vero cells; Vero, 48 h) does the source give for `O=C(NC[C@@H]1OC(=O)N2c3cc(F)c(N4[C@@H]5CC[C@H]4CSC5)cc3OC[C@@H]12)c1ccncc1` [Compound 20, N-(((3S,3aS)-7-((1R,5S)-3-thia-8-azabicyclo[3.2.1]octan-8-yl)-8-fluoro-1-oxo-3a,4-dihydro-1H,3H-benzo[b]oxazolo[3,4-d][1,4]oxazin-3-yl)methyl)isonicotinamide] here?
**A.** > 64 mg/L

**Q.** What about the melting point of the same molecule?
**A.** 149 to 150 °C

**Q.** For `CC(=O)NC[C@@H]1OC(=O)N2c3cc(F)c(N4CCC(F)(F)CC4)cc3OC[C@@H]12` [Compound 32, N-(((3S,3aS)-7-(4,4-Difluoropiperidin-1-yl)-8-fluoro-1-oxo-3a,4-dihydro-1H,3H-benzo[b]oxazolo[3,4-d][1,4]oxazin-3-yl)methyl)acetamide], which IC50 (Vero cells; [3]) is on record?
**A.** > 64 mg/L

**Q.** What about the melting point of the same molecule?
**A.** 230 to 232 °C

**Q.** And the MIC [1, 4]?
**A.** 0.908 mg/L (≈ 2.27 µM)

**Q.** With `CC(=O)NC[C@H]1CN(c2ccc(N3CCOCC3)c(F)c2)C(=O)O1` [Linezolid, reference compound] as the molecule, how does the IC50 [2, 5] read?
**A.** 8.71 mg/L

**Q.** What about the MIC [1, 4] of the same molecule?
**A.** 0.294 mg/L (≈ 0.871 µM)

**Q.** With `CC(=O)NC[C@@H]1OC(=O)N2c3cc(F)c(N4[C@@H]5CC[C@H]4CSC5)cc3OC[C@@H]12` [Compound 14, N-(((3S,3aS)-7-((1R,5S)-3-thia-8-azabicyclo[3.2.1]octan-8-yl)-8-fluoro-1-oxo-3a,4-dihydro-1H,3H-benzo[b]oxazolo[3,4-d][1,4]oxazin-3-yl)methyl)acetamide] as the molecule, how does the IC50 (Vero cells; Vero, 48 h) read?
**A.** 58.5 mg/L (≈ 144 µM)

**Q.** And the melting point?
**A.** 235 to 236 °C

**Q.** What about the MIC ([1]; H37RV) of the same molecule?
**A.** 0.918 mg/L (≈ 2.25 µM)

**Q.** Which IC50 (Vero cells; [3]) does the source give for `O=C1O[C@@H](CNC2COC2)[C@@H]2COc3cc(N4CCSCC4)c(F)cc3N12` [Compound 36, (3S,3aS)-8-Fluoro-3-((oxetan-3-ylamino)methyl)-7-thiomorpholino-3a,4-dihydro-1H,3H-benzo[b]oxazolo[3,4-d][1,4]oxazin-1-one] here?
**A.** > 64 mg/L

**Q.** And the melting point?
**A.** 162 to 164 °C

**Q.** And the MIC [1, 4]?
**A.** 0.237 mg/L (≈ 0.599 µM)

**Q.** With `O=C1O[C@@H](Cn2ccnn2)[C@@H]2COc3cc(N4[C@@H]5CC[C@H]4CSC5)c(F)cc3N12` [Compound 22, (3S,3aS)-3-((1H-1,2,3-Triazol-1-yl)methyl)-7-((1R,5S)-3-thia-8-azabicyclo[3.2.1]octan-8-yl)-8-fluoro-3a,4-dihydro-1H,3H-benzo[b]oxazolo[3,4-d][1,4]oxazin-1-one] as the molecule, how does the IC50 (Vero cells; Vero, 48 h) read?
**A.** > 64 mg/L

**Q.** What about the melting point of the same molecule?
**A.** 225 to 227 °C

**Q.** With `O=C(NC[C@@H]1OC(=O)N2c3cc(F)c(N4[C@@H]5CC[C@H]4CSC5)cc3OC[C@@H]12)C1CCC1` [Compound 17, N-(((3S,3aS)-7-((1R,5S)-3-thia-8-azabicyclo[3.2.1]octan-8-yl)-8-fluoro-1-oxo-3a,4-dihydro-1H,3H-benzo[b]oxazolo[3,4-d][1,4]oxazin-3-yl)methyl)cyclobutanecarboxamide] as the molecule, how does the IC50 (Vero cells; Vero, 48 h) read?
**A.** 34.7 mg/L (≈ 77.5 µM)

**Q.** And the melting point?
**A.** 195 to 196 °C

**Q.** What about the MIC ([1]; H37RV) of the same molecule?
**A.** 0.974 mg/L (≈ 2.18 µM)

**Q.** For `CC(=O)NC[C@@H]1OC(=O)N2c3cc(F)c(N4CCS(=O)(=O)CC4)cc3OC[C@@H]12` [Compound 35, N-(((3S,3aS)-7-(1,1-dioxidothiomorpholino)-8-fluoro-1-oxo-3a,4-dihydro-1H,3H-benzo [b]oxazolo[3,4-d][1,4]oxazin-3-yl)methyl)acetamide], which IC50 (Vero cells; [3]) is on record?
**A.** > 64 mg/L

**Q.** And the melting point?
**A.** 226 to 228 °C

**Q.** What about the MIC [1, 4] of the same molecule?
**A.** 0.48 mg/L (≈ 1.16 µM)

**Q.** Which results are given for `CC(=O)NC[C@@H]1OC(=O)N2c3cc(F)c(N4CCSCC4)cc3OC[C@@H]12` [Compound 4, N-(((3S,3aS)-8-Fluoro-1-oxo-7-thiomorpholino-3a,4-dihydro-1H,3H-benzo[b]oxazolo[3,4-d][1,4]oxazin-3-yl)methyl)acetamide]?
**A.** IC50 (Vero cells; [3]): > 64 mg/L; IC50 [2, 5]: 99.39 mg/L; MIC [1, 4]: 0.044 mg/L (≈ 0.115 µM)

**Q.** With `NC[C@@H]1OC(=O)N2c3cc(F)c(N4[C@@H]5CC[C@H]4CSC5)cc3OC[C@@H]12` [Compound 13, (3S,3aS)-3-(Aminomethyl)-7-((1R,5S)-3-thia-8-azabicyclo[3.2.1]octan-8-yl)-8-fluoro-3a,4-dihydro-1H,3H-benzo[b]oxazolo[3,4-d][1,4]oxazin-1-one] as the molecule, how does the melting point read?
**A.** 168 to 169 °C

**Q.** What about the MIC ([1]; H37RV) of the same molecule?
**A.** 0.609 mg/L (≈ 1.67 µM)

**Q.** For `CC(=O)NC[C@@H]1OC(=O)N2c3cc(F)c(N4CC5(COC5)C4)cc3OC[C@@H]12` [Compound 24, N-(((3S,3aS)-8-Fluoro-1-oxo-7-(2-oxa-6-azaspiro[3.3]heptan-6-yl)-3a,4-dihydro-1H,3H-benzo[b]oxazolo[3,4-d][1,4]oxazin-3-yl)methyl)acetamide], which IC50 (Vero cells; [3]) is on record?
**A.** > 64 mg/L

**Q.** What about the melting point of the same molecule?
**A.** 105 to 107 °C

**Q.** For `COC(=O)NC[C@@H]1OC(=O)N2c3cc(F)c(N4[C@@H]5CC[C@H]4CSC5)cc3OC[C@@H]12` [Compound 18, Methyl (((3S,3aS)-7-((1R,5S)-3-thia-8-azabicyclo[3.2.1]octan-8-yl)-8-fluoro-1-oxo-3a,4-dihydro-1H,3H-benzo[b]oxazolo[3,4-d][1,4]oxazin-3-yl)methyl)carbamate], which IC50 (Vero cells; Vero, 48 h) is on record?
**A.** > 64 mg/L

**Q.** What about the melting point of the same molecule?
**A.** 149 to 151 °C

**Q.** Which melting point does the source give for `O=C(NC[C@@H]1OC(=O)N2c3cc(F)c(N4C5CCC4CSC5)cc3OC[C@@H]12)c1cnccn1` here?
**A.** > 250 °C

**Q.** Which results are given for `O=C(NC[C@@H]1OC(=O)N2c3cc(F)c(N4CC5(COC5)C4)cc3OC[C@@H]12)C1CC1` [Compound 25, N-(((3S,3aS)-8-Fluoro-1-oxo-7-(2-oxa-6-azaspiro[3.3]heptan-6-yl)-3a,4-dihydro-1H,3H-benzo[b]oxazolo[3,4-d][1,4]oxazin-3-yl)methyl)cyclopropanecarboxamide]?
**A.** IC50 (Vero cells; [3]): > 64 mg/L; melting point: 181 to 183 °C

**Q.** Which results are given for `CS(=O)(=O)NC[C@@H]1OC(=O)N2c3cc(F)c(N4CCSCC4)cc3OC[C@@H]12` [Compound 3, N-(((3S,3aS)-8-Fluoro-1-oxo-7-thiomorpholino-3a,4-dihydro-1H,3H-benzo[b]oxazolo[3,4-d][1,4]oxazin-3-yl)methyl)methanesulfonamide]?
**A.** IC50 (Vero cells; [3]): > 64 mg/L; melting point: 234 to 235 °C

**Q.** With `CC(=O)NC[C@@H]1OC(=O)N2c3ccc(N4CCOCC4)cc3OC[C@@H]12` [Compound VII, reference compound] as the molecule, how does the IC50 [2, 5] read?
**A.** 35.82 mg/L

**Q.** And the IC50 ([2]; read-out: IC50 value of mitochondrial protein synthesis inhibition)?
**A.** 35.8 µM

**Q.** And the MIC [1, 4]?
**A.** 1.55 mg/L (≈ 4.45 µM)

**Q.** What does the source list for `O=C(NC[C@@H]1OC(=O)N2c3cc(F)c(N4CC[S+]([O-])CC4)cc3OC[C@@H]12)C(F)F` [Compound 34, 2,2-Difluoro-N-(((3S,3aS)-8-fluoro-7-(1-oxidothiomorpholino)-1-oxo-3a,4-dihydro-1H, 3H-benzo[b]oxazolo[3,4-d][1,4]oxazin-3-yl)methyl)acetamide]?
**A.** IC50 (Vero cells; [3]): > 64 mg/L; melting point: 190 to 192 °C; MIC [1, 4]: 0.492 mg/L (≈ 1.14 µM)
